What was measured:
bacteria [1] = assay: Determination of sensitivity of bacteria (Table 9); type: cell-based; conditions: product at 30 ppm (column 12; columns 11-14 also Free Bacter 3 ppm, Prevent 5 and 3 ppm)
Protocol: (§1) The purpose was to determine the antimicrobial action of a combination of cashew nut liquid and ricinoleic acid, and the effects on yeast (Saccharomyces cerevisiae) during alcoholic fermentation, response to different dosages and under acidic conditions. The items below were evaluated: • Laboratory fermentation with Saccharomyces cerevisiae by evaluating the feasibility and growth of yeast, in addition to bacteria developed at different concentrations of the products and mixtures; • Evaluation of the deflocculation power of yeast in fermentations at several dosages of the products and mixtures; • Evaluation of different dosages in the test for Sensitivity of Bacteria to define the quantity of products and mixtures to be recommended in the fermentation process by comparing them to other antibiotics previously tested and approved being used in the current market; • Identification of the characteristics of products and mixtures during the handling; • Evaluation of products and mixtures at low pH by simulating the conventional treatment of the yeast milk. The studies were based on the cause vs. effect methodology, using the observation of the growth of microorganisms as a parameter for responses. […]

bacteria [2] = assay: Determination of sensitivity of bacteria (Table 8); type: cell-based; conditions: product at 50, 40, 30 ppm (columns 10-12)
Protocol: as §1

E. acervulina = assay: Degree of intestinal lesion in inoculated chickens, E. acervulina (Example 2); type: in vivo; conditions: 24th day of age; 0 no lesion, 4 maximum lesion; salinomycin 66 ppm, AC 1500 ppm
Source text: (§2) Seven hundred and twenty chickens were randomly distributed into four treatments with six repetitions each, with 30 animals in each repetition. The birds were placed in a conventional yard divided into boxes.
(§3) The four treatments were (1. Non-inoculated, without anticoccidial; 2. Inoculated without anticoccidial; 3. Inoculated-salinomycin (66 ppm); 4. inoculated-AC (1500 ppm)). The birds were inoculated at the 18th day of age with 0.5 liter of inocula containing 10,000, 9,000, and 8,000 sporulated oocysts of Eimeria tenella, Eimeria maxima, and Eimeria acervulina, respectively. This solution was mixed with the feed and offered to each group of 30 birds. At the 24th day of age, the degree of intestinal lesion was evaluated (0—no lesion, 4—maximum lesion). The AC composition was 12% castor oil, 40% cashew nut liquid, and 48% carrier.
(§4) The experimental design utilized seven hundred and twenty chickens which were randomly distributed into four treatments and six repetitions. The averages were compared using the SNK test (Student-Newman-Keuls).

E. tenella = assay: Degree of intestinal lesion in inoculated chickens, E. tenella (Example 2); type: in vivo; conditions: 24th day of age; 0 no lesion, 4 maximum lesion; salinomycin 66 ppm, AC 1500 ppm
Source text: as §2, §3, §4

E. maxima = assay: Degree of intestinal lesion in inoculated chickens, E. maxima (Example 2); type: in vivo; conditions: 24th day of age; 0 no lesion, 4 maximum lesion; salinomycin 66 ppm, AC 1500 ppm
Source text: as §2, §3, §4

[3] = tested on: Eimeria tenella, Eimeria maxima, and Eimeria acervulina; assay: Performance of chickens inoculated with Eimeria oocysts, first to 40th day of age (Example 2); type: in vivo; conditions: salinomycin 66 ppm, AC 1500 ppm, inoculated at 18th day
Source text: as §2, §3, §4

For CCCCCC[C@@H](O)C/C=C\CCCCCCCC(=O)O [Product P2, Ricinoleic Acid], the “Performance in sensitivity of bacteria test” value (bacteria [1]) was “negative results” and the “Performance in sensitivity of bacteria test” value (bacteria [2]) was “negative results”.
With CC[C@@H](C(=O)[C@@H](C)[C@@H](O)[C@H](C)[C@@H]1O[C@@H]([C@@H](CC)C(=O)O)CC[C@@H]1C)[C@H]1O[C@]2(C=C[C@@H](O)[C@]3(CC[C@@](C)([C@H]4CC[C@](O)(CC)[C@H](C)O4)O3)O2)[C@H](C)C[C@@H]1C [salinomycin] the “Degree of intestinal lesion, E. acervulina” value (E. acervulina) was 0.72 b, the “Degree of intestinal lesion, E. tenella” value (E. tenella) was 1.61 a and the “Degree of intestinal lesion, E. maxima” value (E. maxima) was 0.72 a. For the same molecule, the Final weight ([3]; 40th day of age) was 2305 b g, the Alimentary conversion ([3]; first to 40th day of age) was 1.78 a and the Ingestion ([3]; first to 40th day of age) was 4018 bc g. It also gave a Viability ([3]; first to 40th day of age) of 97.5 a and a Weight gain ([3]; first to 40th day of age) of 2261 b g.

Source: patent US8377485B2, “Antimicrobial composition and use thereof” (Oligo Basics Industria e Comercio de Racao Ltda, priority 2007, dated 2013)
